For one assay, the target named is T1, PLCG1-C SH2 domain (Homo sapiens, UniProt P19174).
T1 construct: The 6X His-tagged SH2 domain proteins used in the assay, PLCG1-C, SHC4, VAV2; thioredoxin; made in house; host or cells: E. coli BL21(DE3)pLysS
T1 sequence (P19174 668-756 limits assumed): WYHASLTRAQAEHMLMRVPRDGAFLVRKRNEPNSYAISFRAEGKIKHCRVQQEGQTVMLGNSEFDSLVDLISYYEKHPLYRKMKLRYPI
Nature of the assay: biochemical. The conditions noted are these: high-confidence ErbB interactions. In kind it is binding.

In a further assay the target is T2, RASA1-N SH2 domain (Homo sapiens, UniProt P20936).
T2 sequence (P20936 181-272 limits assumed): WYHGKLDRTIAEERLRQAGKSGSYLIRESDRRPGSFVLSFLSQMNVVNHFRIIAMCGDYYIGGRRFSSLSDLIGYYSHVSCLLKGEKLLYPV
Nature of the assay: FP saturation binding assay.

Assay [1] deals with T3, PLCG1-NC tandem SH2 domains (Homo sapiens, UniProt P19174).
T3 construct: the tandem protein was included in our analysis with all internal amino acids linking the domains; 6X His; thioredoxin; made in house; host or cells: E. coli BL21(DE3)pLysS
T3 sequence (P19174 550-756 limits assumed): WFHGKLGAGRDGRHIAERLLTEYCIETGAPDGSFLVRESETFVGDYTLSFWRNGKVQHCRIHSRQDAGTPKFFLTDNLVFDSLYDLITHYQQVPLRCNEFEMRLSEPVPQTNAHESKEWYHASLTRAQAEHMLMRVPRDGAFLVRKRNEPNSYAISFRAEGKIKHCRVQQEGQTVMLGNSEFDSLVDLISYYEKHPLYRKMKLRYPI
Put plainly: FP saturation binding assay. As to conditions: protein PLCG1-NC; FP, high-confidence ErbB interactions; mean of replicate hits. The procedure:
(See Figure 1A) Rhodamine-labeled peptides were dissolved in assay buffer (20 mM HEPES, 100 mM KCl, 0.1% Tween-20, 5 mM DTT, pH 7.8), diluted to a concentration of 20 nM, and plated into black 384-well plates (Corning, Corning, NY) at 5 µL/well using a Perkin Elmer EP3 pipetting workstation (V&P Scientific, Inc., San Diego, CA). SH2, PTB, and thioredoxin control proteins were plated into the first column of 2 mL 96-well plates (Corning) at a concentration of 20 µM and serially diluted 1∶2 into freezing buffer (300 mM NaCl, 50 mM Na2PO4, pH 8, 20% glycerol v/v) eleven times using a Tecan Freedom EVO 100 workstation (Tecan, Männedorf, Switzerland). For the interaction assay, 5 µL of each of the twelve protein concentrations was added to the peptide-containing 384-well plates via the EP3 resulting in a protein dilution range of 0.002–10 µM and a final volume of 10 µL; peptide concentration was fixed at 10 nM. […] Experimental values were output as millipolarization (mP) units and imported into MATLAB (The MathWorks, Inc., Natick, MA) in which equation (1) was used to determine dissociation constants (KDs) for each protein/peptide pairing by least squares nonlinear regression. [drawing 1] (1)
FP was described by the following equation: P=Iparallel-IperpendicularIparallel+Iperpendicular, where “P” denotes polarization, and “I” denotes the fluorescent intensity relative to the plane of incident light. Experimental values were output as millipolarization (mP) units and imported into MATLAB where the following equation was used to determine dissociation constants (KDs) for each protein/peptide pairing by least squares nonlinear regression:
Pobs=Pmax∙ProteinKD+Protein [picture] (1)
Peptides were initially tested for systematic plate effects across protein dilutions and nonspecific binding to thioredoxin by linear regression analysis and any effects were regressed out. The median baseline control polarization value for each plate was then subtracted from each data point to make each binding curve intersect at zero. Plates with excessive variation in baseline control polarizations on both a global and run-specific manner (Dixon’s Q test, p < 0.05) were excluded from further analysis. Outliers in each binding curve were identified and removed using an iterative procedure as follows. The residuals for each fit were used to calculate a global standard deviation of the residuals (GSDR) for each concentration of SH2 domain over all interactions, and individual data points with residuals < or > two GSDR from the global mean residual were flagged as outliers. The outlier with the largest residual from each interaction was removed and nonlinear regression was again performed. This procedure was repeated if additional outliers were identified for an interaction, discarding the interaction if the number of outliers exceeded three. […] In order to further control our false positive rate against hidden confounding variables producing binding artifacts, we sought to determine whether there was a significant relationship between the strength of an interaction and its technical replication rate at our stringent significance and filtering thresholds. We performed logistic regression on the proportion of successful replicates for each interaction query against KD for all interactions (Figure S15A). […] “High-confidence” FP interactions are defined as those having 1 - P(Observed Replication Rate | Expectation) > 0.5 and that have replicated at least twice across independent FP runs. […] The compiled FP data were organized into heatmaps generated by MATLAB and relative binding strength (µM). Peptides without at least one positive hit were classified as “no interaction” if there was no homologous sequence (i.e. identical at the +1 to +4 positions relative to the phosphotyrosine) that produced a positive interaction within the ErbB receptor family.

In a further assay the target is GRB7 SH2 domain (Homo sapiens, UniProt Q14451). Also on record: 6X His; thioredoxin; made in house; host or cells: E. coli BL21(DE3)pLysS. The conditions noted are these: Protein GRB7; most recent PM interactions; ref Jones et al. 2006 / Kaushansky et al. Chem and Biol 2008; cited from earlier work.
The next assay has as its target SH2 and PTB domains. The conditions noted are these: most recent PM interactions, ref Jones et al. 2006 / Kaushansky et al. Chem and Biol 2008, cited from earlier work. The text has this:
Supplement pone.0044471.s022.xlsx, sheet "Most recent PM interactions" | column: Kd || Supplement pone.0044471.s022.xlsx, sheet "All original PM interactions" | column: Kd

Read-outs that look alike come from different tables or passages of the source. Residues, ends and D or L forms follow the SMILES beside them.

Sequence of GRB7 SH2 domain (Q14451 431-527 limits assumed): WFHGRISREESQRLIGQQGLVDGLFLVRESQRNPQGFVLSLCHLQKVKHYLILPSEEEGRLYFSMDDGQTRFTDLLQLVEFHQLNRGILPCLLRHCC

For `CC(C)C[C@H](NC(=O)[C@H](Cc1ccc(OP(=O)(O)O)cc1)NC(=O)[C@H](CCC(=O)O)NC(=O)[C@H](C)NC(=O)[C@H](CC(N)=O)NC(=O)[C@@H](N)CCC(=O)O)C(=O)N[C@@H](CCCNC(=N)N)C(=O)N[C@H](C(=O)N[C@@H](C)C(=O)N1CCC[C@H]1C(=O)N[C@@H](CCC(N)=O)C(=O)N[C@@H](CO)C(=O)N[C@@H](CC(=O)O)C(=O)O)C(C)C` [ErbB1 1197 13-mer] (HELM PEPTIDE1{E.N.A.E.[O=C([C@H](Cc1ccc(OP(=O)(O)O)cc1)N[*:1])[*:2]].L.R.V.A.P.Q.S.D}$$$$V2.0), on PLCG1-C SH2 domain (Protein PLCG1-C, FP saturation binding, mean over replicate hits), the Kd was determined as 5670 nM.

Take `CC(C)C[C@H](NC(=O)[C@H](Cc1ccc(OP(=O)(O)O)cc1)NC(=O)[C@H](CCC(=O)O)NC(=O)[C@H](CCC(N)=O)NC(=O)[C@H](CCCCN)NC(=O)[C@@H]1CCCN1)C(=O)N[C@@H](CC(N)=O)C(=O)N1CCC[C@H]1C(=O)N[C@H](C(=O)N[C@@H](CCC(=O)O)C(=O)N[C@@H](CCC(=O)O)C(=O)N[C@@H](CC(N)=O)C(=O)N[C@@H](CC(=O)O)C(=O)O)C(C)C` [ErbB4 1162 13-mer] (HELM PEPTIDE1{P.K.Q.E.[O=C([C@H](Cc1ccc(OP(=O)(O)O)cc1)N[*:1])[*:2]].L.N.P.V.E.E.N.D}$$$$V2.0): the Kd is 2900 nM on RASA1-N SH2 domain and 5310 nM in assay [1].

Regarding `CC(C)C[C@H](NC(=O)[C@H](CO)NC(=O)[C@H](Cc1ccccc1)NC(=O)[C@H](CCC(=O)O)NC(=O)[C@H](CO)NC(=O)[C@H](CC(C)C)NC(=O)[C@H](Cc1ccc(OP(=O)(O)O)cc1)NC(=O)[C@H](CCC(=O)O)NC(=O)[C@@H]1CCCN1C(=O)[C@H](CC(N)=O)NC(=O)[C@@H](N)CCC(=O)O)C(=O)N[C@@H](CCCCN)C(=O)N[C@@H](CC(=O)O)C(=O)O` [ErbB4 1284 13-mer] (HELM PEPTIDE1{E.N.P.E.[O=C([C@H](Cc1ccc(OP(=O)(O)O)cc1)N[*:1])[*:2]].L.S.E.F.S.L.K.D}$$$$V2.0), the Kd at PLCG1-C SH2 domain (protein PLCG1-C, mean of replicate hits) is 3680 nM.

Turning to AFSPAFDNLYpYWDQDPPE [ErbB2 1222], the Kd at GRB7 SH2 domain was 250 nM; on SH2 and PTB domains (Protein ABL1), 1840 nM; at SH2 and PTB domains (Protein ABL2), 190 nM; on SH2 and PTB domains (Protein BLK), 50 nM; at SH2 and PTB domains (Protein CRKL), 1460 nM; at SH2 and PTB domains (Protein GRB10) it was 490 nM. In addition, the Kd on SH2 and PTB domains (Protein ITK) was 220 nM; on SH2 and PTB domains (Protein PIK3R1-NC), 1840 nM; at SH2 and PTB domains (Protein PIK3R3-NC) it was 780 nM; on SH2 and PTB domains (Protein PLCG1-NC) it was 1790 nM; at SH2 and PTB domains (Protein PLCG2-N) it was 600 nM; at SH2 and PTB domains (Protein PLCG2-NC), 260 nM. The Kd on SH2 and PTB domains (Protein RASA1-N) was 500 nM; at SH2 and PTB domains (Protein RASA1-NC), 220 nM; on SH2 and PTB domains (Protein SH2B2) it was 1470 nM; on SH2 and PTB domains (Protein SH2D3A) it was 1600 nM; at SH2 and PTB domains (Protein SH2D3C) it was 710 nM; on SH2 and PTB domains (Protein SHC1-PTB), 610 nM. The Kd was 460 nM at SH2 and PTB domains (Protein SHC2-PTB); 1710 nM on SH2 and PTB domains (Protein SHC3); 590 nM on SH2 and PTB domains (Protein SHF); 200 nM at SH2 and PTB domains (Protein SRC); 1970 nM at SH2 and PTB domains (Protein SYK-C); 200 nM at SH2 and PTB domains (Protein SYK-N). Further, the Kd at SH2 and PTB domains (Protein SYK-NC) was 460 nM; at SH2 and PTB domains (Protein TEC) it was 1610 nM; on SH2 and PTB domains (Protein TENC1) it was 840 nM; at SH2 and PTB domains (Protein TNS3), 1290 nM; on SH2 and PTB domains (Protein VAV3) it was 1120 nM; at SH2 and PTB domains (Protein YES1), 220 nM.

Broadly, the Kd is the concentration at which binding is half-saturated.

Values taken from article PMC3433420 (PLoS ONE, 2012).
